Measurements from the NIST ThermoML archive (doi:10.1016/j.jct.2012.11.001).
± gives the expanded uncertainty stated by the source.

Test: wn = mass fraction of the nth substance listed
Settings: 101 kPa, Liquid; for viscosity: Capillary tube (Ostwald / Ubbelohde) method; for speed of sound: Linear variable-path acoustic interferometer; for mass density: Pycnometric method

OC[C@H]1O[C@@](CO)(O[C@H]2O[C@H](CO)[C@@H](O)[C@H](O)[C@H]2O)[C@@H](O)[C@@H]1O [D-sucrose] + O
Settings | mass density [kg/m3] | speed of sound [m/s] | viscosity [mPa·s]
293.15 K, w1 = 0.05 | 1018.91 ± 0.37 | 1501.4 ± 1.6 | 1.214 ± 0.026
293.15 K, w1 = 0.1 | 1039.28 ± 0.41 | 1522.5 ± 1.6 | 1.376 ± 0.03
293.15 K, w1 = 0.15 | 1060.31 ± 0.44 | 1533.4 ± 1.6 | 1.609 ± 0.034
293.15 K, w1 = 0.2 | 1082.73 ± 0.41 | 1545.2 ± 1.7 | 1.932 ± 0.041
298.15 K, w1 = 0.05 | 1017.19 ± 0.38 | 1516.5 ± 1.6 | 1.011 ± 0.022
298.15 K, w1 = 0.1 | 1037.45 ± 0.39 | 1531.8 ± 1.6 | 1.183 ± 0.025
298.15 K, w1 = 0.15 | 1058.49 ± 0.4 | 1543.6 ± 1.7 | 1.418 ± 0.03
298.15 K, w1 = 0.2 | 1080.77 ± 0.42 | 1555.3 ± 1.7 | 1.756 ± 0.037
303.15 K, w1 = 0.05 | 1015.46 ± 0.39 | 1526.6 ± 1.6 | 0.9129 ± 0.019
303.15 K, w1 = 0.1 | 1035.61 ± 0.4 | 1541.8 ± 1.7 | 1.061 ± 0.023
303.15 K, w1 = 0.15 | 1056.67 ± 0.41 | 1553 ± 1.7 | 1.252 ± 0.027
303.15 K, w1 = 0.2 | 1078.8 ± 0.43 | 1564.6 ± 1.7 | 1.549 ± 0.033
308.15 K, w1 = 0.05 | 1013.72 ± 0.4 | 1537.8 ± 1.7 | 0.8285 ± 0.018
308.15 K, w1 = 0.1 | 1033.76 ± 0.41 | 1551.6 ± 1.7 | 0.9614 ± 0.02
308.15 K, w1 = 0.15 | 1054.84 ± 0.42 | 1562 ± 1.7 | 1.129 ± 0.024
308.15 K, w1 = 0.2 | 1076.84 ± 0.43 | 1575.2 ± 1.7 | 1.396 ± 0.03
313.15 K, w1 = 0.05 | 1011.98 ± 0.4 | 1547.7 ± 1.7 | 0.7457 ± 0.016
313.15 K, w1 = 0.1 | 1031.93 ± 0.42 | 1561.8 ± 1.7 | 0.8804 ± 0.018
313.15 K, w1 = 0.15 | 1053.01 ± 0.42 | 1570.8 ± 1.7 | 1.025 ± 0.022
313.15 K, w1 = 0.2 | 1074.88 ± 0.44 | 1583.9 ± 1.7 | 1.25 ± 0.026
318.15 K, w1 = 0.05 | 1010.23 ± 0.41 | 1557.2 ± 1.7 | 0.6946 ± 0.015
318.15 K, w1 = 0.1 | 1030.09 ± 0.39 | 1570.9 ± 1.7 | 0.8179 ± 0.017
318.15 K, w1 = 0.15 | 1051.2 ± 0.41 | 1579.2 ± 1.7 | 0.9402 ± 0.02
318.15 K, w1 = 0.2 | 1072.93 ± 0.45 | 1592.8 ± 1.7 | 1.15 ± 0.024
